Values quoted from earlier work as cited in US20050014769A1, “Use of endothelin receptor antogonists for the treatment of tumour diseases” (priority 2001, published 2005).
Square brackets hold non-standard residues; d marks the D form. Peptide text beside a SMILES is read from it.

What was measured:
[1] = tested on: pancreas tumour cells (ASPC-1); settings: in vivo; AACR Abstract No. 3365, 2000
[2] = tested on: prostate cancer cell lines; settings: in vitro; Nelson J B et al. Cancer Research 56, 663-668, 1996
melanoma cells = settings: in vitro; AACR Abstract No. 358, 2002
metastasis formation = settings: rat metastasis model; Asham E et al. British Journal of Cancer 81/11, 2001
[3] = tested on: HPV positive cervical carcinomas; settings: cervical carcinoma; Venuti A et al., FASEB 14/14, 2279-2283, 2000
ovarian carcinoma cells = settings: Del Bufalo D et al., Molecular Pharmacology 61/3, 2002
[4] = tested on: primary ovarian carcinoma cells; settings: Bagnato A et al. Cancer Res 59, 720-727, 1999
[5] = tested on: intestinal cancer cell lines; settings: Ali H et al. Gut 47, 685-688, 2000

## COc1ccccc1Oc1c(NS(=O)(=O)c2ccc(C(C)C)cn2)nc(-c2ccnc(-c3nnn[nH]3)c2)nc1OCCO [Ro 61-612/001]
[1]
  proliferation of pancreas tumour cells (ASPC-1): inhibits the proliferation

## CCCCN(CCCC)C(=O)CN1C[C@H](c2ccc3c(c2)OCO3)[C@@H](C(=O)O)[C@@H]1c1ccc(OC)cc1 [Atrasentan]
[2]
  growth of various prostate cancer cell lines: inhibits the growth

## COc1ccccc1Oc1c(NS(=O)(=O)c2ccc(C(C)(C)C)cc2)nc(-c2ncccn2)nc1OCCO [Bosetan]
Melanoma cells
  proliferation of melanoma cells: inhibits the proliferation

## CC(C)C[C@@H]1NC(=O)[C@@H](C(C)C)NC(=O)[C@@H]2CCCN2C(=O)[C@@H](CC(=O)O)NC(=O)[C@@H](Cc2c[nH]c3ccccc23)NC1=O [BQ123] (cyclo(L[dW][dD]P[dV]))
Metastasis formation
  metastasis formation: inhibits metastasis formation
[3]
  ET-1 stimulated proliferation of tumour cells: can be inhibited
Ovarian carcinoma cells
  ET-1 protection against apoptosis: can be eliminated
[4]
  proliferation of tumour cells: inhibits the proliferation
[5]
  ET-1 stimulated proliferation of intestinal cancer cell lines: can be inhibited
